These are literature values, as cited in patent US20250101002A1, “DEUTERATED INFIGRATINIB COMPOUNDS” (QED Therapeutics, Inc., priority 2023, published 2025).

Where a name gives a salt, the structure may show the parent alone.

The conditions of this data set: cholangiocarcinoma indication.

With `CCN1CCN(c2ccc(Nc3cc(N(C)C(=O)Nc4c(Cl)c(OC)cc(OC)c4Cl)ncn3)cc2)CC1` [infigratinib monophosphate, Monophosphate Salt Form A of 3-(2,6-dichloro-3,5-dimethoxy-phenyl)-1-{6-4-(4-ethyl-piperazin-1-yl)-phenylaminol-pyrimidin-4-yl}-1-methyl-urea], the common adverse reactions entry (infigratinib monophosphate dosed at 125 mg) was “nail toxicity, stomatitis, dry eye, fatigue, alopecia, palmar-plantar erythrodyesthesia syndrome, arthralgia, dysgeusia, constipation, abdominal pain, dry mouth, eyelash changes, diarrhea, dry skin, decreased appetite, blurred vision, and vomiting”. In addition, the “additional adverse reactions observed in corresponding clinical trials” value (infigratinib monophosphate) is “ocular toxicity, hyperphosphatemia and soft tissue mineralization, infections, anemia, pyrexia, abdominal pain, hypercalcemia, and sepsis”.
